Measured values: the supplement of paper PMC6718421

Test system: Caenorhabditis elegans
Assay: animals per well after 6 days (50 L1 seeded); higher = more viable animals (less toxic)
Procedure: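 About 50 synchronized L1s per well were grown in liquid NGM with E. coli HB101 and twofold serial dilutions (0.12-120 uM) of crystal- or sphere-forming wactives for 6 days at 20 C; animals per well were counted, and overgrown wells (>50 animals) were scored as 100. Values are averages of replicate wells for wild type and sms-5(ok2498).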

CCCc1nc(-c2ccc(-c3ccc(F)cc3)cc2)no1 [wact-390]
animals per well
Conditions	genotype: sms-5(ok2498)	genotype: wild type N2
0.1171875 µM	> 100	> 100
0.234375 µM	> 100	> 100
0.46875 µM	> 100	> 100
0.9375 µM	> 100	> 100
1.875 µM	> 100	56.2
3.75 µM	> 100	4.83
7.5 µM	> 100	3.33
15 µM	> 100	2.83
30 µM	> 100	2.33
60 µM	> 100	0.333
120 µM	92.7	0.667
